The first assay has as its system CD4+ T cells. Nature of the assay: Meta-analysis of published SARS-CoV-2 CD4 T cell epitope data curated in the IEDB (25 studies). The note with it: CD4R (D) Megapool, non-spike antigens; dominant = recognized in 3 or more donors/studies. The assay is classed as cell-based, human.
In the case of 2312 (YYRRATRRIRGGDGK) [compound 2312], the Dominant result is “Yes (more dominant epitopes are defined by being recognized by 3 or more donors/different studies)”.
Same read-out and setting: for 2323 (KRTATKAYNVTQAFG) [compound 2323] the value was “Yes (more dominant epitopes are defined by being recognized by 3 or more donors/different studies)”; for 2330 (PSGTWLTYTGAIKLD) [compound 2330], “Yes (more dominant epitopes are defined by being recognized by 3 or more donors/different studies)”.
As for 2308 (ASWFTALTQHGKEDL) [compound 2308], the Dominant entry is “Yes (more dominant epitopes are defined by being recognized by 3 or more donors/different studies)”.
On the same count and under the same terms, the entry for “2302 (TSRTLSYYKLGASQRVA) [compound 2302]” is “Yes (more dominant epitopes are defined by being recognized by 3 or more donors/different studies)”.
With 2300 (IKDLPKEITVATSRT) [compound 2300], the Dominant entry is reported as “Yes (more dominant epitopes are defined by being recognized by 3 or more donors/different studies)”.
As for 2294 (SELVIGAVILRGHLR) [compound 2294], the Dominant result is reported as “Yes (more dominant epitopes are defined by being recognized by 3 or more donors/different studies)”.
Consider 2297 (RGHLRIAGHHLGRCD) [compound 2297], for which the Dominant result was “Yes (more dominant epitopes are defined by being recognized by 3 or more donors/different studies)”.
Consider 2301 (KEITVATSRTLSYYK) [compound 2301], for which the Dominant entry was “Yes (more dominant epitopes are defined by being recognized by 3 or more donors/different studies)”.
The same measure, in the same setting: for 2333 (ILLNKHIDAYKTFPP) [compound 2333] the value was “Yes (more dominant epitopes are defined by being recognized by 3 or more donors/different studies)”; for 2327 (WPQIAQFAPSASAFF) [compound 2327], “Yes (more dominant epitopes are defined by being recognized by 3 or more donors/different studies)”.
Consider 2318 (AGNGGDAALALLLLD) [compound 2318], for which the Dominant entry is reported as “Yes (more dominant epitopes are defined by being recognized by 3 or more donors/different studies)”.
Turning to 2293 (TNILLNVPLHGTILT) [compound 2293], the Dominant result is recorded as “Yes (more dominant epitopes are defined by being recognized by 3 or more donors/different studies)”.
Still for that read-out and setting: for 2331 (GTWLTYTGAIKLDDK) [compound 2331] the value was “Yes (more dominant epitopes are defined by being recognized by 3 or more donors/different studies)”; for 2321 (AAEASKKPRQKRTAT) [compound 2321], “Yes (more dominant epitopes are defined by being recognized by 3 or more donors/different studies)”.
Take 2306 (LGASQRVAGDSGFAA) [compound 2306]: the Dominant entry is listed as “Yes (more dominant epitopes are defined by being recognized by 3 or more donors/different studies)”.
For the substance 2291 (CLVGLMWLSYFIASF) [compound 2291], the Dominant result is reported as “Yes (more dominant epitopes are defined by being recognized by 3 or more donors/different studies)”.
Regarding 2310 (DDQIGYYRRATRRIR) [compound 2310], the Dominant entry is on record as “Yes (more dominant epitopes are defined by being recognized by 3 or more donors/different studies)”.
With “2329 (GMEVTPSGTWLTYTGAIKLD) [compound 2329]”, the Dominant result is “Yes (more dominant epitopes are defined by being recognized by 3 or more donors/different studies)”.
For 2316 (KDGIIWVATEGALNT) [compound 2316], the Dominant entry is “Yes (more dominant epitopes are defined by being recognized by 3 or more donors/different studies)”.
Take 2322 (KKPRQKRTATKAYNV) [compound 2322]: the Dominant result is reported as “Yes (more dominant epitopes are defined by being recognized by 3 or more donors/different studies)”.
Same read-out and setting: the entry for 2305 (SYYKLGASQRVAGDS) [compound 2305] is “Yes (more dominant epitopes are defined by being recognized by 3 or more donors/different studies)”.
Regarding 2303 (SRTLSYYKLGASQRV) [compound 2303], the Dominant result is “Yes (more dominant epitopes are defined by being recognized by 3 or more donors/different studies)”.
In the case of 2317 (AIVLQLPQGTTLPKG) [compound 2317], the Dominant result was “Yes (more dominant epitopes are defined by being recognized by 3 or more donors/different studies)”.

The assay is the same for the next values; noted with them: CD4RE megapool peptides (non-spike SARS-CoV-2 CD4 epitopes); dominant = recognized by 3 or more donors/different studies.
Take 2647 (AGNGGDAALALLLLD) [compound 2647]: the Dominant entry is on record as “Yes (more dominant epitopes are defined by being recognized by 3 or more donors/different studies)”.
Same read-out and setting: for 2659 (PSGTWLTYTGAIKLD) [compound 2659] the value was “Yes (more dominant epitopes are defined by being recognized by 3 or more donors/different studies)”.
For the substance 2644 (NKDGIIWVATEGALN) [compound 2644], the Dominant result is reported as “Yes (more dominant epitopes are defined by being recognized by 3 or more donors/different studies)”.
Regarding 2643 (RWYFYYLGTGPEAGL) [compound 2643], the Dominant result is reported as “Yes (more dominant epitopes are defined by being recognized by 3 or more donors/different studies)”.
As for “2624 (GAVILRGHLRIAGHHLGR) [compound 2624]”, the Dominant entry was “Yes (more dominant epitopes are defined by being recognized by 3 or more donors/different studies)”.
Regarding 2637 (ASWFTALTQHGKEDL) [compound 2637], the Dominant result is “Yes (more dominant epitopes are defined by being recognized by 3 or more donors/different studies)”.
As for 2645 (KDGIIWVATEGALNT) [compound 2645], the Dominant result was “Yes (more dominant epitopes are defined by being recognized by 3 or more donors/different studies)”.
On the same count and under the same terms, the entry for 2620 (CLVGLMWLSYFIASF) [compound 2620] is “Yes (more dominant epitopes are defined by being recognized by 3 or more donors/different studies)”; for 2639 (DDQIGYYRRATRRIR) [compound 2639] it is “Yes (more dominant epitopes are defined by being recognized by 3 or more donors/different studies)”; for 2625 (LRGHLRIAGHHLGRC) [compound 2625] it is “Yes (more dominant epitopes are defined by being recognized by 3 or more donors/different studies)”.
As for “2658 (GMEVTPSGTWLTYTGAIKLD) [compound 2658]”, the Dominant entry is on record as “Yes (more dominant epitopes are defined by being recognized by 3 or more donors/different studies)”.
Consider 2662 (ILLNKHIDAYKTFPP) [compound 2662], for which the Dominant entry is given as “Yes (more dominant epitopes are defined by being recognized by 3 or more donors/different studies)”.
As to 2617 (QFAYANRNRFLYIIK) [compound 2617], the Dominant entry is on record as “Yes (more dominant epitopes are defined by being recognized by 3 or more donors/different studies)”.
Take 2649 (LLLLDRLNQLESKMS) [compound 2649]: the Dominant result is “Yes (more dominant epitopes are defined by being recognized by 3 or more donors/different studies)”.
The same measure, in the same setting: the entry for 2636 (SGFAAYSRYRIGNYK) [compound 2636] is “Yes (more dominant epitopes are defined by being recognized by 3 or more donors/different studies)”; for 2654 (LIRQGTDYKHWPQIA) [compound 2654] it is “Yes (more dominant epitopes are defined by being recognized by 3 or more donors/different studies)”; for 2656 (WPQIAQFAPSASAFF) [compound 2656] it is “Yes (more dominant epitopes are defined by being recognized by 3 or more donors/different studies)”.
With 2623 (SELVIGAVILRGHLR) [compound 2623], the Dominant entry is given as “Yes (more dominant epitopes are defined by being recognized by 3 or more donors/different studies)”.
As for 2632 (SRTLSYYKLGASQRV) [compound 2632], the Dominant result was “Yes (more dominant epitopes are defined by being recognized by 3 or more donors/different studies)”.
Consider 2655 (YKHWPQIAQFAPSAS) [compound 2655], for which the Dominant entry was “Yes (more dominant epitopes are defined by being recognized by 3 or more donors/different studies)”.
Same read-out and setting: for 2621 (MWLSYFIASFRLFAR) [compound 2621] the value was “Yes (more dominant epitopes are defined by being recognized by 3 or more donors/different studies)”.
For the substance 2634 (SYYKLGASQRVAGDS) [compound 2634], the Dominant result is on record as “Yes (more dominant epitopes are defined by being recognized by 3 or more donors/different studies)”.
Same read-out and setting: the entry for 2629 (IKDLPKEITVATSRT) [compound 2629] is “Yes (more dominant epitopes are defined by being recognized by 3 or more donors/different studies)”.
With 2674 (QEEVQELYSPIFLIV) [compound 2674], the Dominant result is listed as “Yes (more dominant epitopes are defined by being recognized by 3 or more donors/different studies)”.
On to 2627 (IAGHHLGRCDIKDLP) [compound 2627], for which the Dominant result is on record as “Yes (more dominant epitopes are defined by being recognized by 3 or more donors/different studies)”.
In the case of 2651 (KKPRQKRTATKAYNV) [compound 2651], the Dominant entry is “Yes (more dominant epitopes are defined by being recognized by 3 or more donors/different studies)”.
With 2661 (FKDQVILLNKHIDAY) [compound 2661], the Dominant result is “Yes (more dominant epitopes are defined by being recognized by 3 or more donors/different studies)”.
In the case of 2618 (VLAAVYRINWITGGI) [compound 2618], the Dominant entry is recorded as “Yes (more dominant epitopes are defined by being recognized by 3 or more donors/different studies)”.
Regarding 2626 (RGHLRIAGHHLGRCD) [compound 2626], the Dominant result is “Yes (more dominant epitopes are defined by being recognized by 3 or more donors/different studies)”.
Consider 2660 (GTWLTYTGAIKLDDK) [compound 2660], for which the Dominant entry is “Yes (more dominant epitopes are defined by being recognized by 3 or more donors/different studies)”.
Regarding 2630 (KEITVATSRTLSYYK) [compound 2630], the Dominant entry is “Yes (more dominant epitopes are defined by being recognized by 3 or more donors/different studies)”.
With 2650 (AAEASKKPRQKRTAT) [compound 2650], the Dominant entry is reported as “Yes (more dominant epitopes are defined by being recognized by 3 or more donors/different studies)”.
2635 (LGASQRVAGDSGFAA) [compound 2635]: the Dominant result is reported as “Yes (more dominant epitopes are defined by being recognized by 3 or more donors/different studies)”.

For the origin of these results see patent publication US20250231185A1, “Coronavirus T Cell Epitopes, Megapools and Uses Thereof” (La Jolla Institute for Immunology, priority 2021, published 2025).
